{
  "source": "patent US10202418B2",
  "about": "“Hydroxy-ethylene derivatives for the treatment of arthrosis” (MERCK PATENT GMBH, priority 2013, dated 2019)",
  "key": {"[1]": {"system": "cartilage explant cultures", "settings": "pH 5.5, explant cultures; cited from earlier work"}, "rat knee joint": {"system": "rat knee joint", "assay": "Anti-hyperalgesic effect in animals (carrageenan-injected rat knee joint, Hargreaves test)", "assay_type": "in vivo", "settings": "intra-articular, 30 minutes before CAR", "method": "In order to induce an inflammation reaction, a carrageenan solution (CAR, 1%, 50 μl) was injected intra-articularly on one side into a rat knee joint. The uninjected side was used for control purposes. Six animals per group were used. The threshold was determined by means of a micrometer screw (medial-lateral on the knee joint), and the thermal hyperalgesia was determined by means of a directed infrared light source by the Hargreaves method (Hargreaves et al., 1988) on the sole of the foot. […] Experimental description of thermal hyperalgesia (Hargreaves test): the experimental animal is placed in a plastic chamber on a quartz sheet. Before testing, the experimental animal is firstly given about 5-15 minutes time to familiarise itself with the environment. As soon as the experimental animal no longer moves so frequently after the familiarisation phase (end of the exploration phase), the infrared light source, whose focus is in the plane of the glass bottom, is positioned directly beneath the rear paw to be stimulated. […] Light reflected by the paw is recorded as long as the experimental animal sits still. Withdrawal of the paw interrupts this reflection, after which the infrared light source is switched off and the time from switching on to switching off is recorded. […]"}, "[2]": {"target": "cathepsin D isolated from the human liver (Homo sapiens (Human), UniProt P07339)", "sequence (P07339 65-161)": "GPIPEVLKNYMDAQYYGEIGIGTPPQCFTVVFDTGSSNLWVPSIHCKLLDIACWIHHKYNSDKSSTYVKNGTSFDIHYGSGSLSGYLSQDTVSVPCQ", "sequence (P07339 169-412)": "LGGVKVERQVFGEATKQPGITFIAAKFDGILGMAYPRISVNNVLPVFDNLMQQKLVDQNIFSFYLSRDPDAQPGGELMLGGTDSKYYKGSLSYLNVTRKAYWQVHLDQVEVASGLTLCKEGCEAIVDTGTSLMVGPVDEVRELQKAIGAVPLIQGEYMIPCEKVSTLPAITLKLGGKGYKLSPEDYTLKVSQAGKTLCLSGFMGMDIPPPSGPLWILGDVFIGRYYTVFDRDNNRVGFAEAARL", "assay": "In-vitro fluorescence assay for identification of cathepsin D inhibitors", "assay_type": "biochemical", "settings": "cathepsin D 1.4 nM, pH 5.5; values in E notation; read-out: Cath D IC50", "description": "In order to identify modulators of cathepsin D activity, a continuous enzymatic test was carried out with a synthetic peptide which carries a fluorescent group (MCA=(7-methoxycoumarin-4-yl)acetyl) which is quenched by energy transfer from a Dpn (2,4 dinitrophenyl) group on the same molecule, in Greiner 384-well nb microtitre plates. Cleavage of the peptidic substrate by cathepsin D causes an increase in the fluorescence intensity. In order to determine the efficacy of substances, the time-dependent increase in the fluorescence intensity in the presence of the substance was compared with the time-dependent increase in fluorescence in the absence of substances. The reference substance used was pepstatin A (Sigma-Aldrich). The substrate used was MCA-GKPILFFRLK(Dnp)d-R—NH2 (Enzo Life Sciences, Lor-rach). The enzyme employed was cathepsin D isolated from the human liver (Sigma-Aldrich) in a final concentration of 1.4 nM. The test was carried out in 100 mM sodium acetate buffer, 1.25% (v/v) of DMSO, 0.25% (w/v) of Chaps, pH 5.5. 2 μl of each substance solution with serially diluted substance concentration were added to in each case 4 μl of cathepsin D solution and incubated at room temperature for 10 min. The reaction was started by addition of 2 μl of substrate solution (final concentration 5 μM). After carrying out a starting-point fluorescence measurement (excitation wavelength 340 nm/emission wavelength 450 nm) using an Envision multilabel reader (Perkin Elmer), the reaction was incubated at room temperature for 60 min. The amount of peptide fragment cleaved off during the reaction time was subsequently measured by determination of the increase in the fluorescence intensity at 450 nm (excitation wavelength 340 nm).\nThe IC50 values of the compounds according to the invention can be obtained from Table 2 from Example 1."}, "recombinant human renin": {"target": "recombinant human renin (Homo sapiens (Human), UniProt P00797)", "sequence (P00797 67-406)": "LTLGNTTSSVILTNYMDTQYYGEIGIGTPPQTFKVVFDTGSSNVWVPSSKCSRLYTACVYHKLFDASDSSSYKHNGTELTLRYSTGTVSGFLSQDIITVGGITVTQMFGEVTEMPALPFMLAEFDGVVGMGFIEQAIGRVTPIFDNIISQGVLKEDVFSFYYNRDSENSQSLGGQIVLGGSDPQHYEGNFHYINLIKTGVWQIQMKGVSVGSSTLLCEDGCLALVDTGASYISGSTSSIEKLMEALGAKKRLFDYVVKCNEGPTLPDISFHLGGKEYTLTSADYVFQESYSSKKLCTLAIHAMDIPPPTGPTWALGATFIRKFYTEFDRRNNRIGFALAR", "assay": "In-vitro fluorescence assay for identification of renin-inhibitory activity", "assay_type": "biochemical", "settings": "renin 10 nM, pH 7.2", "description": "In order to identify modulators of renin activity, a continuous enzymatic test was carried out with a synthetic peptide which carries a fluorescent group Edans (=(5-(aminoethyl)aminonaphthalenesulfonate) which is quenched by energy transfer from a Dabcyl (4′-dimethylaminoazobenzene-4-carboxylate) group on the same molecule, in Greiner 384-well microtitre plates. Cleavage of the peptidic substrate by renin causes an increase in the fluorescence intensity. In order to determine the efficacy of substances, the time-dependent increase in the fluorescence intensity in the presence of the substance was compared with the time-dependent increase in fluorescence in the absence of substances. The reference substance used was renin inhibitor 2 (Z-Arg-Arg-Pro-Phe-His-Sta-Ile-His N-Boc-Lys methyl ester Z) (Sigma-Aldrich). The substrate used was renin FRET substrate I (DABCYL-g-Abu-Ile-His-Pro-Phe-His-Leu-Val-Ile-His-Thr EDANS) (Anaspec, Fremont Calif.). The enzyme employed was recombinant human renin (Proteos, Kalamazoo, Mich.) in a final concentration of 10 nM. The test was carried out in 50 mM Mops buffer, 1.5% (v/v) of DMSO, 0.1% (w/v) of Igepal®, pH 7.2, 0.5% (w/v) of BSA. 2 μl of each substance solution with serially diluted substance concentration were added to in each case 4 μl of renin solution and incubated at room temperature for 15 min. The reaction was started by addition of 4 μl of substrate solution (final concentration 5 μM). After carrying out a starting-point fluorescence measurement (excitation wavelength 340 nm/emission wavelength 495 nm) using an Envision multilabel reader (Perkin Elmer), the reaction was incubated at 37° C. for 60 min. The amount of peptide fragment cleaved off during the reaction time was subsequently measured by determination of the increase in the fluorescence intensity at 495 nm (excitation wavelength 340 nm)."}},
  "note": "Non-standard residues stand in square brackets, D forms with d. Residues, ends and D or L forms follow the SMILES beside them. *: point of attachment. Sta = CC(C)C[C@H](N)[C@@H](O)CC(=O)O; Isovaleryl = CC(C)CC(=O)*",
  "data": [
    {"smiles": "CC(C)c1nc(CN(C)C(=O)N[C@H](C(=O)N[C@@H](Cc2ccccc2)C[C@H](O)[C@H](Cc2ccccc2)NC(=O)OCc2cncs2)C(C)C)cs1", "note": "[ritonavir]", "values": [
      {"measurement": "inhibition of autodigestion of the cartilage", "setting": "[1]", "value": "inhibited virtually completely"}
    ]},
    {"smiles": "C[C@]12C=CC(=O)C=C1CC[C@H]1[C@@H]3C[C@@H](O)[C@](O)(C(=O)CO)[C@@]3(C)C[C@H](O)[C@@]12F", "note": "[TAC, Triamcinolone]", "values": [
      {"measurement": "reduction of CAR-induced swelling", "setting": "rat knee joint", "value": "capable of reducing the CAR-induced swelling"}
    ]},
    {"smiles": "CC(C)[C@H](NC(=O)Cc1cccc(Oc2ccccc2)c1)C(=O)N[C@@H](Cc1ccccc1)[C@@H](O)CCC(=O)NCCc1ccccc1", "note": "[Compound A6, (4S,5S)-4-Hydroxy-5-{(S)-3-methyl-2-[2-(3-phenoxyphenyl)acetylamino]-butyrylamino}-6-phenylhexanoic acid phenethylamide]", "values": [
      {"measurement": "IC50", "setting": "[2]", "value": 12, "unit": "µM"},
      {"measurement": "IC50", "setting": "recombinant human renin", "value": "> 30000", "unit": "nM"}
    ]},
    {"smiles": "CC[C@H](C)[C@H](NC(=O)CC[C@H](O)[C@H](Cc1ccccc1)NC(=O)[C@@H](NC(=O)[C@H](CC(C)C)NC(=O)OC(C)(C)C)C(C)C)C(=O)NCc1cnc(C)nc1N", "note": "[Compound A1, {(S)-1-[(S)-1-((1S,2S)-4-{(1S,2S)-1-[(4-Amino-2-methylpyrimidin-5-yl-methyl)carbamoyl]-2-methylbutylcarbamoyl}-1-benzyl-2-hydroxybutyl-carbamoyl)-2-methylpropylcarbamoyl]-3-methylbutyl}carbamic acid tert-butyl ester]", "values": [
      {"measurement": "IC50", "setting": "[2]", "value": 0.43, "unit": "µM"},
      {"measurement": "IC50", "setting": "recombinant human renin; values in E notation", "value": 320, "unit": "nM"}
    ]},
    {"smiles": "CC(C)CC(=O)N[C@H](C(=O)N[C@H](C(=O)N[C@@H](CC(C)C)[C@@H](O)CC(=O)N[C@@H](C)C(=O)N[C@@H](CC(C)C)[C@@H](O)CC(=O)O)C(C)C)C(C)C", "note": "[pepstatin] (Isovaleryl-VV[Sta]A[Sta]-OH)", "values": [
      {"measurement": "inhibition of autodigestion of the cartilage", "setting": "[1]", "value": "inhibited virtually completely"}
    ]}
  ]
}
